Results taken from US20260374781A1, “NOVEL TRIHETEROCYCLIC COMPOUNDS” (IDENCE CO., LTD., priority 2022, published 2026).

Tests used:
[1] = target: T1, KRAS WT (Homo sapiens, UniProt P01116); assay: KRAS Nucleotide Exchange Assay (SOS1-mediated), WT; assay type: biochemical; settings: HTRF, 20 nM KRAS, 7.5 nM SOS1, 60 minutes preincubation, approximately 25 minutes reaction
T1 construct: GST-tagged KRAS WT or mutant protein (amino acids 2-169)
Source text: (§1) Test Example 1: KRAS Nucleotide Exchange Assay
(§2) Evaluation of the inhibitory effect of compounds on SOS1-mediated nucleotide exchange activity of KIRAS^WT, KRAS^G12D, KRAS^G12V, KRAS^G12C and KRAS^G13D mutants
(§3) The assay monitors SOS1 mediated exchange of KRAS bound unlabeled GDP to fluorescently labeled GTP. The detection is based on the transfer of energy between two fluorophores when they are in close proximity. Donor is the Tb cryptate labeled anti-GST antibody and acceptor is a DY-647P1 GTP.
(§4) • GST-tagged KRAS WT or mutant protein (amino acids 2-169), • SOS1 (amino acids 564-1049), • Labeled GTP (GTP-DY-647P1), • Assay Buffer (20 mM HEPES pH 7.4, 150 mM NaCl, 5 mM MgCl2, 1 mM DTT, 0.05% BSA, 0.0025% NP40)
• 1. […] The reaction was monitored at Ex/Em=(337/665; 337/620) using a Pherastar Plate Reader (BMG). • 6. HTRF signals were analyzed approximately 25 minutes after the start of the reaction (60 minutes reaction for G12V). • 7. Nucleotide exchange activity is expressed as a percentage difference compared to the DMSO reaction value, and the IC50 value was calculated based on the four-parameter logistic equation in GraphPad 4.0 software.

[2] = target: T2, KRAS G12D (Homo sapiens, UniProt P01116, G12D); assay: KRAS Nucleotide Exchange Assay (SOS1-mediated), G12D; assay type: biochemical; settings: HTRF, 20 nM KRAS, 12.5 nM SOS1, 60 minutes preincubation, approximately 25 minutes reaction
T2 construct: GST-tagged KRAS WT or mutant protein (amino acids 2-169)
Source text: as §1, §2, §3, §4
(§5) • 1. KRAS protein was diluted with assay buffer to reach 1.5 times of the final concentration, then mixed with Tb cryptate anti-GST antibody and added at 10 μL to each assay well (all of the final concentration was 20 nM for KRAS^WT, KRAS^G12D, and KRAS^G12V) • 2. The compound was dissolved in DMSO and diluted to prepare 100 times of the final concentration. • 3. Compounds were dispensed into assay wells using an ECHO acoustic dispenser (Beckman), mixed gently with the KRAS/Ab mixture, and incubated for 60 minutes. • 4. SOS1 and labeled GTP were mixed, diluted to 3 times of the final concentration with assay buffer, and 5 μL of the solution was added to the assay well to initiate the reaction (final concentration of labeled GTP was […], final concentration of SOS1 was 7.5 nM in WT, 12.5 nM in G12D and 50 nM in G12V). Only assay buffer and labeled GTP were added to the blank well. • 5. The reaction was monitored at Ex/Em=(337/665; 337/620) using a Pherastar Plate Reader (BMG). • 6. HTRF signals were analyzed approximately 25 minutes after the start of the reaction (60 minutes reaction for G12V). • 7. Nucleotide exchange activity is expressed as a percentage difference compared to the DMSO reaction value, and the IC50 value was calculated based on the four-parameter logistic equation in GraphPad 4.0 software.

[3] = target: T3, KRAS G12V (Homo sapiens, UniProt P01116, G12V); assay: KRAS Nucleotide Exchange Assay (SOS1-mediated), G12V; assay type: biochemical; settings: HTRF, 20 nM KRAS, 50 nM SOS1, 60 minutes preincubation, 60 minutes reaction
T3 construct: GST-tagged KRAS WT or mutant protein (amino acids 2-169)
Source text: as §1, §2, §3, §4, §5

[4] = system: AsPC-1 cells; assay: Cell Proliferation Assay, AsPC-1 (CellTiter-Glo 2.0 viability); assay type: cell-based; settings: AsPC-1 pancreatic cancer (KRAS G12D mutation)
Description: (§6) Test Example 3: Cell Proliferation Assay
(§7) Cell viability testing of test compounds in AsPC-1 pancreatic cancer (KRAS G12D mutation) or SW480 colon cancer (KRAS G12V mutation) cells for 72 hours
(§8) The reference compound Staurosporine was purchased from Sigma-Aldrich (Saint Louis, MI), and CellTiter-Glo® 2.0 Luminescent cell viability assay reagent (cat #G9243) was purchased from Promega (Madison, WI). AsPC-1 and SW480 cell lines were purchased from American Type Culture Collection (Manassas, VA). AsPC-1 cells were cultured with RPMI-1640 (ATCC, cat #30-2001) and SW480 cells were cultured with DMEM (ATCC cat #30-2002).
(§9) A medium supplemented with 10% FBS (Sigma-Aldrich, cat #F2442) and 100 µg/mL of penicillin-streptomycin (Sigma-Aldrich, cat #P4333) was used. Cells were cultured at 37 °C in a humidified atmosphere of 5% CO2 and 95% air.
(§10) • 1. The test compound and reference compound, Staurosporine were dissolved in DMSO solution to prepare 20 mM (test compound) and 10 mM (control compound, Staurosporine) in the Source Plate and diluted with DMSO to 3-fold and 10 doses. • 2. From the Source Plate, 10 volumes of 125 nL test compound or 25 nL reference compound were dispensed into wells of a 384-well culture plate (VWR, cat #82050-076) using Echo 655. • 3. 25 μL of culture medium including 2000 AsPC-1 or SW480 cells was dispensed into each 384-well cell culture plate. • 4. Cells were cultured with the compound for 72 hours at 37 °C and 5% CO2 conditions. • 5. 25 μL of CellTiter-Glo 2.0 reagent was added to each well of the plate. • 6. The contents were mixed for 2 minutes on an orbital shaker, and the luminescence signal was stabilized at room temperature for 15 minutes. • 7. Luminescence signals were measured with an Envision 2104 Multilabel Reader (PerkinElmer, Santa Clara, CA), and the number of surviving cells was determined through quantification of ATP present in each culture. • 8. IC50 values were calculated based on the Sigmoidal dose-response equation in the GraphPad Prism 4 program.

[5] = target: T4, KRAS G12C (Homo sapiens, UniProt P01116, G12C); assay: KRAS Nucleotide Exchange Assay (SOS1-mediated), G12C; assay type: biochemical; settings: HTRF, 60 minutes preincubation, approximately 25 minutes reaction
T4 construct: GST-tagged KRAS WT or mutant protein (amino acids 2-169)
Source text: as §1, §2, §3, §4, §5

[6] = system: SW480 cells; assay: Cell Proliferation Assay, SW480 (CellTiter-Glo 2.0 viability); assay type: cell-based; settings: Homo sapiens; SW480 colon cancer (KRAS G12V mutation); 72 hours
Description: as §6, §7, §8, §9, §10

[7] = target: T5, KRAS G13D (Homo sapiens, UniProt P01116, G13D); assay: KRAS Nucleotide Exchange Assay (SOS1-mediated), G13D; assay type: biochemical; settings: HTRF, 60 minutes preincubation, approximately 25 minutes reaction
T5 construct: GST-tagged KRAS WT or mutant protein (amino acids 2-169)
Source text: as §1, §2, §3, §4, §5

T4 sequence (P01116 2-169 isoform P01116-2 G12C): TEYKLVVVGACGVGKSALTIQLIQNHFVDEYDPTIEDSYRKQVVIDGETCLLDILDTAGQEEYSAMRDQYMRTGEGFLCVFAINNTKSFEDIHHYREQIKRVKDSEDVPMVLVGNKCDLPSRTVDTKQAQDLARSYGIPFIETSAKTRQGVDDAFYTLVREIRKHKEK
T3 sequence (P01116 2-169 isoform P01116-2 G12V): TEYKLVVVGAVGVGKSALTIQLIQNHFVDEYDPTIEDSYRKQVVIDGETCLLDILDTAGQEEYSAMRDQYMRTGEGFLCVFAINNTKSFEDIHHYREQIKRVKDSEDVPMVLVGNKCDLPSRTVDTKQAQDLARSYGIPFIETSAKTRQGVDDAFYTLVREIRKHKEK
T2 sequence (P01116 2-169 isoform P01116-2 G12D): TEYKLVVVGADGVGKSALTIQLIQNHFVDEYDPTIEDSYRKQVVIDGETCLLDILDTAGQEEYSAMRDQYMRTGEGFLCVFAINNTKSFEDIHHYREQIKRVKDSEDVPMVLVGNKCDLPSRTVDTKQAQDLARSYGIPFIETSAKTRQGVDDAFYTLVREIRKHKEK
T5 sequence (P01116 2-169 isoform P01116-2 G13D): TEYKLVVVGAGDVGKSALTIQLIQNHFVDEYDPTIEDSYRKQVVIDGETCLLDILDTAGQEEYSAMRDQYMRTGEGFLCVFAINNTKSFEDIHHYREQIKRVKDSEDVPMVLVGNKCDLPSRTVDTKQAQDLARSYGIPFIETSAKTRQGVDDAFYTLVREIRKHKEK
T1 sequence (P01116 2-169 isoform P01116-2): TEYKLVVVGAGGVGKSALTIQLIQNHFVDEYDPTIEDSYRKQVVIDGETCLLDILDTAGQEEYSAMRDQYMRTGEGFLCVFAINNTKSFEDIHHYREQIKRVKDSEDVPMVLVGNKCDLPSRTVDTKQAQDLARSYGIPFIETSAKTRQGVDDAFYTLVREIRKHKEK

SMILES	IC50 [1] [nM]	IC50 [2] [nM]	IC50 [3] [nM]	IC50 ([4]; Homo sapiens, ASPC1, 72 h) [µM]	IC50 [5] [nM]	IC50 [6] [nM]	IC50 [7] [nM]	IC50 ([4]; 72 hours) [µM]
CCc1c(F)ccc2cc(O)cc(-c3nc4c5c(nc(OC[C@@]67CCCN6C[C@H](F)C7)nc5c3F)N(CC3(N(C)C)CCC3)CCO4)c12 [Example 1, 4-(10-((1-(dimethylamino)cyclobutyl)methyl)-4-fluoro-2-(((2R,7aS)-2-fluorotetrahydro-1H-pyrrolizin-7a(5H)-yl)methoxy)-9,10-dihydro-8H-7-oxa-1,3,6,10-tetraazacyclohepta[de]naphthalen-5-yl)-5-ethyl-6-fluoronaphthalen-2-ol]	6.22	1.26	33.4	> 10	–	–	–	–
CCc1c(F)ccc2cc(O)cc(-c3nc4c5c(nc(OC[C@@]67CCCN6C[C@H](F)C7)nc5c3F)N(C(C)c3cccnc3N)CCO4)c12 (mixture of isomers) [Example 14, 4-(10-(1-(2-aminopyridin-3-yl)ethyl)-4-fluoro-2-(((2R,7aS)-2-fluorotetrahydro-1H-pyrrolizin-7a(5H)-yl)methoxy)-9,10-dihydro-8H-7-oxa-1,3,6,10-tetraazacyclohepta[de]naphthalen-5-yl)-5-ethyl-6-fluoronaphthalen-2-ol]	–	3.79	2.79	< 1	1.78	< 1000	8.71	–
C[C@H](c1cccnc1N)N1C[C@H](C)Oc2nc(-c3cc(O)cc4ccc(F)c(F)c34)c(F)c3nc(OC[C@@]45CCCN4C[C@H](F)C5)nc1c23 (stereo in doubt) [Example 10a, 4-((S)-10-((R)-1-(2-aminopyridin-3-yl)ethyl)-4-fluoro-2-(((2R,7aS)-2-fluorotetrahydro-1H-pyrrolizin-7a(5H)-yl)methoxy)-8-methyl-9,10-dihydro-8H-7-oxa-1,3,6,10-tetraazacyclohepta[de]naphthalen-5-yl)-5,6-difluoronaphthalen-2-ol]	–	3.67	1.59	> 10	0.608	–	6.97	–
C#Cc1c(F)ccc2cc(O)cc(-c3nc4c5c(nc(OC[C@@]67CCCN6C[C@H](F)C7)nc5c3F)N(C(C)c3cccnc3N)CCO4)c12 (stereo partly drawn) [Example 13, 4-(10-(1-(2-aminopyridin-3-yl)ethyl)-4-fluoro-2-(((2R,7aS)-2-fluorotetrahydro-1H-pyrrolizin-7a(5H)-yl)methoxy)-9,10-dihydro-8H-7-oxa-1,3,6,10-tetraazacyclohepta[de]naphthalen-5-yl)-5-ethynyl-6-fluoronaphthalen-2-ol]	–	1.65	1.38	–	0.609	< 1000	3.69	< 1
CCc1c(F)ccc2cc(O)cc(-c3nc4c5c(nc(OC[C@@]67CCCN6C[C@H](F)C7)nc5c3F)N([C@@H](C)c3cccnc3N)C[C@H](C)O4)c12 [Example 3b, 4-((S)-10-((S)-1-(2-aminopyridin-3-yl)ethyl)-4-fluoro-2-(((2R,7aS)-2-fluorotetrahydro-1H-pyrrolizin-7a(5H)-yl)methoxy)-8-methyl-9,10-dihydro-8H-7-oxa-1,3,6,10-tetraazacyclohepta[de]naphthalen-5-yl)-5-ethyl-6-fluoronaphthalen-2-ol]	–	176	62.1	–	–	–	–	–
CC(c1cccnc1N)N1CCOc2nc(-c3cc(O)cc4ccc(F)c(F)c34)c(F)c3nc(OC[C@@]45CCCN4C[C@H](F)C5)nc1c23 (stereo partly drawn) [Example 16, 4-(10-(1-(2-aminopyridin-3-yl)ethyl)-4-fluoro-2-(((2R,7aS)-2-fluorotetrahydro-1H-pyrrolizin-7a(5H)-yl)methoxy)-9,10-dihydro-8H-7-oxa-1,3,6,10-tetraazacyclohepta[de]naphthalen-5-yl)-5,6-difluoronaphthalen-2-ol]	–	2.35	2.3	< 1	0.916	< 1000	4.94	–
CCc1c(F)ccc2cc(O)cc(-c3nc4c5c(nc(OC[C@@]67CCCN6C[C@H](F)C7)nc5c3F)N(C(C)c3cccnc3N)C[C@H](C)O4)c12 (stereo partly drawn) [Example 3, 4-((8S)-10-(1-(2-aminopyridin-3-yl)ethyl)-4-fluoro-2-(((2R,7aS)-2-fluorotetrahydro-1H-pyrrolizin-7a(5H)-yl)methoxy)-8-methyl-9,10-dihydro-8H-7-oxa-1,3,6,10-tetraazacyclohepta[de]naphthalen-5-yl)-5-ethyl-6-fluoronaphthalen-2-ol]	–	8.69	3.25	> 10	–	–	–	–
C#Cc1c(F)ccc2cc(O)cc(-c3nc4c5c(nc(OC[C@@]67CCCN6C[C@H](F)C7)nc5c3F)N(CC3(N(C)C)CCC3)CCO4)c12 [Example 2, 4-(10-((1-(dimethylamino)cyclobutyl)methyl)-4-fluoro-2-(((2R,7aS)-2-fluorotetrahydro-1H-pyrrolizin-7a(5H)-yl)methoxy)-9,10-dihydro-8H-7-oxa-1,3,6,10-tetraazacyclohepta[de]naphthalen-5-yl)-5-ethynyl-6-fluoronaphthalen-2-ol]	–	1.34	–	1 to 10	–	–	–	–
CCc1c(F)ccc2cc(O)cc(-c3nc4c5c(nc(OC[C@@]67CCCN6C[C@H](F)C7)nc5c3F)N([C@H](C)c3cccnc3N)C[C@H](C)O4)c12 [Example 3a, 4-((S)-10-((R)-1-(2-aminopyridin-3-yl)ethyl)-4-fluoro-2-(((2R,7aS)-2-fluorotetrahydro-1H-pyrrolizin-7a(5H)-yl)methoxy)-8-methyl-9,10-dihydro-8H-7-oxa-1,3,6,10-tetraazacyclohepta[de]naphthalen-5-yl)-5-ethyl-6-fluoronaphthalen-2-ol]	–	5.76	2.19	> 10	–	–	–	–
